From publication PMC11203266, “Continuous evolution of compact protein degradation tags regulated by selective molecular glues” (Science (New York, N.Y.), 2024)
“Also recorded” adds a separate entry of the source.

Columns and labels:
KELLY cells = experiment: Global quantitative proteomics, KELLY; assay type: cell-based, human; details: 1 µM; for proteins downregulated (in words): 5 hours
Protocol: (§1) Cells were lysed by addition of lysis buffer (8 M Urea, 50 mM NaCl, 50 mM 4-(2-hydroxyethyl)-1-piperazineethanesulfonic acid (EPPS) pH 8.5, Protease and Phosphatase inhibitors) and homogenization by bead beating (BioSpec) for three repeats of 30 seconds at 2400. Bradford assay was used to determine the final protein concentration in the clarified cell lysate. 50 μg of protein for each sample was reduced, alkylated and precipitated using methanol/chloroform as previously described ([32]) and the resulting washed precipitated protein was allowed to air dry. Precipitated protein was resuspended in 4 M Urea, 50 mM HEPES pH 7.4, followed by dilution to <1 M urea with the addition of 200 mM EPPS, pH 8. Proteins were digested with LysC (1:50; enzyme:protein) and trypsin (1:50; enzyme:protein) overnight at 37 °C. Sample digests were acidified with formic acid to a pH of 2-3 prior to desalting using C18 solid phase extraction plates (SOLA, Thermo Fisher Scientific). Desalted peptides were dried in a vacuum centrifuge and reconstituted in 0.1% formic acid for LC-MS analysis.
(§2) Data were collected using a TimsTOF Pro2 (Bruker Daltonics, Bremen, Germany) coupled to a nanoElute LC pump (Bruker Daltonics, Bremen, Germany) via a CaptiveSpray nano-electrospray source. Peptides were separated on a reversed-phase C18 column (25 cm x 75 μm ID, […], IonOpticks, Australia) containing an integrated captive spray emitter. Peptides were separated using a 50 min gradient of 2 – 30% buffer B (acetonitrile in 0.1% formic acid) with a flow rate of 250 nL/min and column temperature maintained at 50 °C.
(§3) DDA was performed in Parallel Accumulation-Serial Fragmentation (PASEF) mode to determine effective ion mobility windows for downstream diaPASEF data collection (Meier et al., 2020). The ddaPASEF parameters included: 100% duty cycle using accumulation and ramp times of 50 ms each, 1 TIMS-MS scan and 10 PASEF ramps per acquisition cycle. The TIMS-MS survey scan was acquired between 100–1700 m/z and 1/k0 of 0.7–1.3 V.s/cm^2. Precursors with 1–5 charges were selected and those that reached an intensity threshold of 20,000 arbitrary units were actively excluded for 0.4 min. The quadrupole isolation width was set to 2 m/z for m/z <700 and 3 m/z for m/z >800, with the m/z between 700–800 m/z being interpolated linearly. The TIMS elution voltages were calibrated linearly with three points (Agilent ESI-L Tuning Mix Ions; 622, 922, 1,222 m/z) to determine the reduced ion mobility coefficients (1/K0). To perform diaPASEF, the precursor distribution in the DDA m/z-ion mobility plane was used to design an acquisition scheme for DIA data collection which included two windows in each 50 ms diaPASEF scan. Data was acquired using sixteen of these 25 Da precursor double window scans (creating 32 windows) which covered the diagonal scan line for doubly and triply charged precursors, with singly charged precursors able to be excluded by their position in the m/z-ion mobility plane. These precursor isolation windows were defined between 400–1200 m/z and 1/k0 of 0.7–1.3 V.s/cm^2.
The diaPASEF raw file processing and controlling peptide and protein level false discovery rates, assembling proteins from peptides, and protein quantification from peptides was performed using either targeted, cell line specific spectral libraries generated by searching offline fractionated DDApasef data against a Swissprot human or mouse database (January 2021) or using library free analysis in DIA-NN 1.8 ([85]). Library free mode performs an in-silico digestion of a given protein sequence database alongside deep learning-based predictions to extract the DIA precursor data into a collection of MS2 spectra. The search results are then used to generate a spectral library which is then employed for the targeted analysis of the DIA data searched against a Swissprot human or mouse database (January 2021). […]

Ba/F3 cells = experiment: Global quantitative proteomics, Ba/F3; assay type: cell-based, mouse; details: 1 µM; for changes to protein expression (in words): pomalidomide 5 hrs, PT-179 5 and 24 hrs
Protocol: as §1, §2, §3
The diaPASEF raw file processing and controlling peptide and protein level false discovery rates, assembling proteins from peptides, and protein quantification from peptides was performed using either targeted, cell line specific spectral libraries generated by searching offline fractionated DDApasef data against a Swissprot human or mouse database (January 2021) or using library free analysis in DIA-NN 1.8 ([85]). Library free mode performs an in-silico digestion of a given protein sequence database alongside deep learning-based predictions to extract the DIA precursor data into a collection of MS2 spectra. The search results are then used to generate a spectral library which is then employed for the targeted analysis of the DIA data searched against a Swissprot human or mouse database (January 2021).

CRBNCTD = CRBNCTD (Homo sapiens, UniProt Q96SW2); experiment: CRBNCTD MG-PACE circuit luminescence assay; assay type: cell-based; details: pomalidomide; degron SD0; vs DMSO
From the text: We also explored anchoring the circuit with the CRBN C-terminal domain (CTD) alone, which contains the IMiD binding pocket (Fig. 2B) ([65], [69]). […] We attributed the difference in maximum circuit activation to poor expression of full-length CRBN in E. coli. In our initial efforts, we used the CRBNCTD MG-PACE circuit, hypothesizing that higher activation (lower selection stringency) would better support weak-binding SD0 variants in the early stages of evolution.
Chemically competent S2060 cells were co-transformed with accessory and complementary plasmids (Table S1). Cells were plated on LB agar supplemented with carbenicillin, spectinomycin, and tetracycline and grown overnight at 37 °C. Single colonies were seeded in 1 mL DRM with carbenicillin and spectinomycin and grown overnight in a 37 °C shaker at 220 rpm. Overnight cultures were back-diluted 1:100 in DRM with carbenicillin and spectinomycin and grown at 37 °C with shaking until OD600 values reached 0.3-0.4. Polymyxin B nonapeptide (PMBN) was added to a final concentration of 3 μg/mL culture from a 1000x stock (3 mg/mL in DMSO). […] 96-well plates were then incubated in an Infinite M1000 Pro microplate reader (Tecan) at 37 °C with continuous shaking for ~1 hour prior to reading A600 nm and luminescence values. Raw luminescence values were then divided by the corresponding A600 nm values to normalize to cell density.

Sequence of CRBNCTD (Q96SW2 318-426 limits assumed): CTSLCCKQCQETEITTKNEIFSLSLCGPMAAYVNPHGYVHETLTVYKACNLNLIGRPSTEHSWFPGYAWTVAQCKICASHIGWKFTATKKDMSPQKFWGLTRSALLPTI

For `O=C1CCC(N2C(=O)c3ccc(N4CCOCC4)cc3C2=O)C(=O)N1` (stereo not drawn) [PT-179], the “proteins downregulated (in words)” value (KELLY cells) was “no significant degradation of detected proteins”, the “logFC GLMP (Q8WWB7)” value (KELLY cells; vs DMSO, 5 hr, KELLY) was -1.07E+00 and the “logFC KIAA1958 (Q8N8K9)” value (KELLY cells; vs DMSO, 5 hr, KELLY) was -1.94E+00. The “logFC SYT14 (Q8NB59)” value (KELLY cells; vs DMSO, 5 hr, KELLY) was -1.10E+00, the “logFC TIMM8B (Q9Y5J9)” value (KELLY cells; vs DMSO, 5 hr, KELLY) was -1.14E+00 and the “logFC TUB (P50607)” value (KELLY cells; vs DMSO, 5 hr, KELLY) was -1.12E+00. For the same compound, the “changes to protein expression (in words)” value (Ba/F3 cells) was “do not degrade proteins; also recorded: no significant changes to protein expression”, the “logFC Bak1 (O08734)” value (Ba/F3 cells; vs DMSO, 5 hr, Ba/F3) was -1.95E-01 and the “logFC Hspa1l (P16627)” value (Ba/F3 cells; vs DMSO, 5 hr, Ba/F3) was 3.76E-01. The “logFC Polr2l (P62876)” value (Ba/F3 cells; vs DMSO, 5 hr, Ba/F3) was 5.32E-01, the “logFC Prkd1 (Q62101)” value (Ba/F3 cells; vs DMSO, 5 hr, Ba/F3) was 5.39E-01 and the “logFC Rpa2 (Q62193)” value (Ba/F3 cells; vs DMSO, 5 hr, Ba/F3) was 1.32E-01. The “logFC Pigo (Q9JJI6)” value (Ba/F3 cells; vs DMSO, 24 hr, Ba/F3) was -3.94E-01, the “logFC Ppib (P24369)” value (Ba/F3 cells; vs DMSO, 24 hr, Ba/F3) was 9.71E-02 and the “logFC Prpf38a (Q4FK66)” value (Ba/F3 cells; vs DMSO, 24 hr, Ba/F3) was -1.96E-01. For the same compound, the “logFC Ube2v1 (Q9CZY3)” value (Ba/F3 cells; vs DMSO, 24 hr, Ba/F3) was 5.05E-01 and the “logFC Uchl4 (P58321)” value (Ba/F3 cells; vs DMSO, 24 hr, Ba/F3) was 1.38E-01.

With `Nc1cccc2c1C(=O)N(C1CCC(=O)NC1=O)C2=O` (stereo not drawn) [pomalidomide, reference compound] the “transcriptional activation at the highest dose” value (CRBNCTD) was 13 fold, the “proteins downregulated (in words)” value (KELLY cells) was “robust downregulation of the developmental transcription factor SALL4 ([32]) and ZFP91” and the “logFC DTWD1 (Q8N5C7)” value (KELLY cells; vs DMSO, 5 hr, KELLY) was -1.64E+00. For the same compound, the “logFC GID8 (Q9NWU2)” value (KELLY cells; vs DMSO, 5 hr, KELLY) was -1.75E+00, the “logFC RAB28 (P51157)” value (KELLY cells; vs DMSO, 5 hr, KELLY) was -1.53E+00 and the “logFC SALL4 (Q9UJQ4)” value (KELLY cells; vs DMSO, 5 hr, KELLY) was -2.26E+00. For the same compound, the “logFC SSNA1 (O43805)” value (KELLY cells; vs DMSO, 5 hr, KELLY) was -1.42E+00, the “changes to protein expression (in words)” value (Ba/F3 cells) was “do not degrade proteins” and the “logFC Bola1 (Q9D8S9)” value (Ba/F3 cells; vs DMSO, 5 hr, Ba/F3) was -2.16E-01. The “logFC Dusp19 (Q8K4T5)” value (Ba/F3 cells; vs DMSO, 5 hr, Ba/F3) was -7.00E-01, the “logFC Inpp5k (Q8C5L6)” value (Ba/F3 cells; vs DMSO, 5 hr, Ba/F3) was -9.47E-01 and the “logFC Llph (Q9D945)” value (Ba/F3 cells; vs DMSO, 5 hr, Ba/F3) was 2.10E-01. The “logFC Med8 (Q9D7W5)” value (Ba/F3 cells; vs DMSO, 5 hr, Ba/F3) was -3.40E-01.
